{"source": "paper PMC8406319", "about": "“The dCache Chemoreceptor TlpA of Helicobacter pylori Binds Multiple Attractant and Antagonistic Ligands via Distinct Sites” (mBio, 2021)", "key": {"[1]": {"tested_on": "H. pylori PMSS1 ΔtlpA", "assay": "Temporal chemotaxis assay (direction changes), ΔtlpA mutant", "format": "cell-based, Helicobacter pylori", "conditions": "ligands 0.1-10 mM, controls 50 μM dipyridyl, 10 mM HCl", "procedure": "Cultures of H. pylori PMSS1 WT and ΔtlpA strains were grown overnight, back-diluted, and then incubated until an OD600 of 0.12 to 0.15 was reached. Cultures were treated with water (Mock) or various concentrations of compounds, as indicated. For panels C and E, the pH of cysteine, thiamine, malic acid, and α-ketoglutarate stocks was adjusted using NaOH to match the pH of the water used for the untreated control. The cells were immediately filmed, and direction changes were counted over a 3-s swimming period in at least 100 cells per treatment from 3 biological replicates. Data are normalized to the values for the untreated control for each strain, as described in Materials and Methods. Error bars represent the standard errors of the means. *, P < 0.05; **, P < 0.01; ***, P < 0.001 (comparisons to the untreated control per strain using two-way ANOVA with Dunnett’s multiple-comparison test).\nTo determine if chemoattractant responses toward arginine, fumarate, and cysteine were TlpA dependent, the same tracking experiments were repeated with a mutant lacking tlpA (ΔtlpA).\nSwimming behavior assays were done with H. pylori PMSS1 strains grown in BB10 as described above. Cultures grown overnight were diluted to an optical density at 600 nm (OD600) of 0.1 in fresh BB10 and then incubated with shaking as described above until an OD600 of 0.12 to 0.15 was reached. […] The number of direction changes in a bacterial swimming trajectory was enumerated over a 3-s interval to determine whether each putative ligand is sensed as an attractant or repellent or elicits no response ([20], [25][–][30]). […] Each control is sensed by chemoreceptors other than TlpA ([24], [25], [29], [31]). The pH of BB10 upon treatment was independently assessed using a Denver Instruments pH meter. Prior to realizing that chemotactic responses may be due to medium acidification, we resuspended all ligands in pure water. Therefore, to be able to compare the results to those of previous experiments, we continued resuspending acidified ligands in pure water and then adjusting the pH of the resuspended ligand using NaOH. Cultures were filmed immediately after ligand addition at a ×400 magnification using a Hamamatsu C4742-95 digital camera with μManager software (version 1.4.22), mounted on a Nikon Eclipse E600 phase-contrast microscope. For the competition chemotaxis assay, cultures of H. pylori and ligands were prepared as described above. However, 1 min after the addition of a nonchemoactive ligand at a final concentration of 10 mM, a chemoactive ligand was added at a final concentration of 10 mM, and the cultures were then filmed as described above. Videos were relabeled to blind the observer to the strain identity. For each sample, >100 3-s-long bacterial tracks from three independent cultures were analyzed manually to identify stops followed by direction changes. Data for all biological replicates under each condition were combined, and the average number of direction changes in 3 s and the standard error of the mean were calculated. For each strain, data were normalized to the values for the untreated control under each experimental condition. Statistical analysis of the data for treated versus untreated samples was performed using two-way analysis of variance (ANOVA) and Dunnett’s multiple-comparison test."}, "[2]": {"tested_on": "TlpALBD", "assay": "Saturation transfer difference (STD) NMR", "format": "binding, Helicobacter pylori SS1", "conditions": "25 μM TlpALBD, 2.5 mM ligand", "procedure": "In the saturation transfer difference (STD) NMR experiment, the entire TlpALBD protein was first saturated at the protein resonances, and excess ligand was then added. As the ligand binds and releases from the receptor, saturation transfers from the protein to the bound ligand. This transfer appeared as an […] in the ligand intensity on epitopes that interacted with the TlpALBD protein. […] All STD NMR spectra were acquired in Shigemi tubes (Shigemi, USA) with a Bruker 600-MHz Advance spectrometer at 283 K using a 1^H-13^C-15^N gradient cryoprobe equipped with z-gradients. Protein resonances were saturated at −1.0 ppm (on-resonance) and 33 ppm (off-resonance), with a total saturation time of 2 s. A total of 512 scans per STD NMR experiment were acquired, and a Watergate sequence was used to suppress the residual HDO signal. A spin-lock filter with a 5-kHz strength and a duration of 10 ms was applied to suppress the protein background. On- and off-resonance spectra were stored and processed separately, and the final STD NMR spectra were obtained by subtracting the on- and off-resonance spectra. Control STD NMR experiments were performed identically in the absence of protein."}, "[3]": {"tested_on": "H. pylori PMSS1 WT", "assay": "Ligand competition tracking (chemotaxis) assay", "format": "cell-based, Helicobacter pylori", "conditions": "10 mM each; added before or after the chemoattractant", "procedure": "Consequently, we tested whether glucosamine affected H. pylori chemotaxis by developing a ligand competition tracking assay between non-chemotaxis-active and chemotaxis-active TlpA ligands. This assay is a modified version of our live-cell video microscopy assay where the addition of a chemotaxis-active ligand is followed by the addition of a non-chemotaxis-active ligand 10 s later and vice versa. […] This response was decreased regardless of whether glucosamine was added before or after the addition of the chemoattractant.\nFIG 7 Ligand competition tracking experiment between chemoactive and nonchemoactive TlpA ligands. Cultures of the H. pylori PMSS1 WT were grown in BB10 overnight and then back-diluted as described in the legend of Fig. 1. Cultures were mock treated or treated with various concentrations of compounds as indicated. The pH of the cysteine stock was adjusted using NaOH to match the pH of the water used for the untreated control. The cells were immediately filmed, and direction changes were counted over a 3-s swimming period in at least 100 cells per treatment from 3 biological replicates. Repellents increase direction changes, as exemplified by the control repellent HCl, while attractants decrease direction changes, as exemplified by the control attractant dipyridyl. Data are normalized to the values for the untreated control for each strain, as described in Materials and Methods. […]\nSwimming behavior assays were done with H. pylori PMSS1 strains grown in BB10 as described above. […] The pH of BB10 upon treatment was independently assessed using a Denver Instruments pH meter. […] For each sample, >100 3-s-long bacterial tracks from three independent cultures were analyzed manually to identify stops followed by direction changes. Data for all biological replicates under each condition were combined, and the average number of direction changes in 3 s and the standard error of the mean were calculated. […]"}}, "note": "Structures can show the parent of a compound that is named as a salt.", "data": [{"compound": "O=C(O)/C=C/C(=O)O", "note": "[Fumarate, sodium fumarate]", "values": [{"measurement": "Chemotactic response of ΔtlpA mutant", "setting": "[1]", "result": "failed to exhibit a chemotactic response"}, {"measurement": "STD NMR signal on binding TlpALBD", "setting": "[2]", "result": "significant STD NMR signal was detected"}]}, {"compound": "N=C(N)NCCC[C@H](N)C(=O)O", "note": "[Arginine, L-arginine monohydrochloride]", "values": [{"measurement": "Chemotactic response of ΔtlpA mutant", "setting": "[1]", "result": "failed to exhibit a chemotactic response"}, {"measurement": "STD NMR signal on binding TlpALBD", "setting": "[2]", "result": "significant STD NMR signals were observed"}]}, {"compound": "N[C@H]1C(O)O[C@H](CO)[C@@H](O)[C@@H]1O", "note": "(stereo partly drawn) [Glucosamine, D(+)-glucosamine hydrochloride]", "values": [{"measurement": "Effect on chemoattractant response to arginine", "setting": "[3]", "result": "prevented the chemoattractant response"}, {"measurement": "Effect on chemoattractant response to cysteine", "setting": "[3]", "result": "severely blunted the response"}, {"measurement": "Effect on chemoattractant response to fumarate", "setting": "[3]", "result": "prevented the chemoattractant response"}]}, {"compound": "N[C@@H](CS)C(=O)O", "note": "[Cysteine, L-cysteine hydrochloride monohydrate]", "values": [{"measurement": "Chemotactic response of ΔtlpA mutant", "setting": "[1]", "result": "failed to exhibit a chemotactic response"}]}]}
